Assay results taken from patent US20100209959A1, “TUMOUR-CELL-FIXING CELLS” (UNIVERSITE PIERRE ET MARIE CURIE-PARIS VI, priority 2007, published 2010).

Assays:
HL60 cells [1] = assay: Proliferation of HL60 cells, free or fixed to hospicells, after exposure to AraC or DNR; type: cell-based, human; details: for living HL60 cells fixed to the hospicells during treatment / living free HL60 cells during treatment: 5 days' treatment; for living HL60 cells fixed to the hospicells during treatment / living HL60 cells on hospicells after the treatment is stopped: HL60 fixed to hospicells; for living HL60 cells on hospicells after the treatment is stopped / growth of free HL60 cells after the treatment is stopped: drug removed, fresh medium
Description: (§1) HL60 cells cultured with hospicells in RPMI medium were treated for 5 days with either aracytin (AraC) or daunorubicin (DNR).
After 5 days' treatment, the drug was removed and the cells were cultured again in fresh medium.
The number of living HL60 cells was measured throughout the experiment using the image analysis system.

hospicells = assay: Toxicity of the drug for hospicells in HL60/hospicell co-culture; type: cell-based
Description: as §1
This effect of “regrowth” of the cells is greater with aracytin than with daunorubicin, the difference being linked to the toxicity of daunorubicin for the hospicells.

OVCAR3 cells = assay: Chemoresistance of OVCAR3 cells co-cultured with hospicells (SRB assay); type: cell-based; details: verapamil 1.4 μM added, in the presence of carboplatin and paclitaxel
Description: Briefly, the hospicells were cultivated to 60% confluence. 2·10^4 OVCAR3 cells expressing GFP were then co-cultivated with the hospicells for 24 hours before being brought into contact with a chemotherapeutic agent (carboplatin 22.2 μM and paclitaxel 1.4 μM). The chemotherapeutic effect was determined with the aid of a quantitative colorimetric assay with sulforhodamine B (SRB) as described by Skehan et al. (1990) J. Natl. Cancer Inst. 82:1107-1112. The pink colour of the SRB was quantified by measuring the absorbance at 540 nm. For each condition, the mean cell density and the standard deviation were calculated from the data obtained for 6 wells. The experiments were repeated 3 times.
The role of the MDR proteins in the chemoresistance imparted by the hospicells was confirmed by repeating the above co-culture experiments of hospicells and OVCAR3 cells in the presence of carboplatin and paclitaxel, and adding to the culture medium verapamil (1.4 μM), an MDR1 protein inhibitor.

HL60 cells [2] = assay: Adhesion of HL60 cells to hospicells; type: cell-based, human; details: HL60 incubated beforehand with agent; tumour cells/hospicells 5/1; 24 hours at 37° C.
Description: HL60 cells were incubated in RPMI medium under […]: • HL60 cells alone (control) • HL60 cells+anti-arrestin antibody (control antibody) • HL60 cells+RGD (Arg-Gly-Asp, integrin consensus sequence, which partially prevents integrin dependent adhesion) • HL60 cells+anti-CD11a antibody • HL60 cells+anti-CD49d antibody • HL60 cells+anti-CD11a antibody+anti-CD49d antibody • HL60 cells+anti-CD11a antibody+anti-CD49d antibody+RGD
For each condition, HL60 cells were deposited separately and in identical amounts in 6 different wells containing complete RPMI medium and fixing cells which had adhered to the support. The ratio between tumour cells and hospicells was 5/1. After incubation for 24 hours at 37° C., the HL60 cells that had not adhered were recovered and counted. The percentage of HL60 cells adhering to the hospicells was then calculated for each condition.

Compound: Nc1ccn([C@@H]2O[C@H](CO)[C@@H](O)[C@@H]2O)c(=O)n1 [AraC, aracytin]
- living HL60 cells fixed to the hospicells during treatment (HL60 cells [1]): no longer detectable
- living HL60 cells on hospicells after the treatment is stopped (HL60 cells [1]): living HL60 cells are identifiable
- effect of regrowth of the HL60 cells on hospicells, aracytin compared with daunorubicin (HL60 cells [1]; after the treatment is stopped): greater
- living free HL60 cells during treatment (HL60 cells [1]): die
- growth of free HL60 cells after the treatment is stopped (HL60 cells [1]): do not grow

Compound: COc1cccc2c1C(=O)c1c(O)c3c(c(O)c1C2=O)C[C@@](O)(C(C)=O)C[C@@H]3O[C@H]1C[C@H](N)[C@H](O)[C@H](C)O1 [DNR, daunorubicin]
- living HL60 cells fixed to the hospicells during treatment (HL60 cells [1]): no longer detectable
- living HL60 cells on hospicells after the treatment is stopped (HL60 cells [1]): living HL60 cells are identifiable
- living free HL60 cells during treatment (HL60 cells [1]): die
- growth of free HL60 cells after the treatment is stopped (HL60 cells [1]): do not grow
- toxicity for the hospicells (hospicells): toxicity

Compound: COc1ccc(CCN(C)CCCC(C#N)(c2ccc(OC)c(OC)c2)C(C)C)cc1OC (stereo not drawn) [verapamil]
- chemoresistance imparted by the hospicells to the OVCAR3 cells (OVCAR3 cells): dramatically reduces

Compound: Arg-Gly-Asp [RGD]
- adhesion of the HL60 cells to the hospicells (HL60 cells [2]): partially blocks
